Assay results: PubChem BioAssay (NCI)
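The compound was tested at five concentrations on cells cultured in 96-well plates, with a 48-hour exposure period. TGI is the concentration that stops growth completely.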

Legend:
Experiment in all cases: NCI tumour cell line growth inhibition, 48 h
SR leukemia = tested on: SR leukemia
COLO 205 colon = tested on: COLO 205 colon
LOX IMVI melanoma = tested on: LOX IMVI melanoma
SNB-78 CNS = tested on: SNB-78 CNS
MOLT-4 leukemia = tested on: MOLT-4 leukemia
SN12C renal = tested on: SN12C renal
UACC-257 melanoma = tested on: UACC-257 melanoma
786-0 renal = tested on: 786-0 renal
M19-MEL melanoma = tested on: M19-MEL melanoma
DMS 114 small cell lung = tested on: DMS 114 small cell lung
A498 renal = tested on: A498 renal
CAKI-1 renal = tested on: CAKI-1 renal
XF 498 CNS = tested on: XF 498 CNS
NCI-H460 lung = tested on: NCI-H460 lung
UO-31 renal = tested on: UO-31 renal
KM20L2 colon = tested on: KM20L2 colon
SK-MEL-2 melanoma = tested on: SK-MEL-2 melanoma
NCI-H522 lung = tested on: NCI-H522 lung
HOP-18 NSCLC = tested on: HOP-18 NSCLC
HCT-15 colon = tested on: HCT-15 colon
HOP-62 NSCLC = tested on: HOP-62 NSCLC
NCI-H23 lung = tested on: NCI-H23 lung
DLD-1 colon = tested on: DLD-1 colon
ACHN renal = tested on: ACHN renal
U251 CNS = tested on: U251 CNS
RXF 393 renal = tested on: RXF 393 renal
SK-OV-3 ovarian = tested on: SK-OV-3 ovarian
UACC-62 melanoma = tested on: UACC-62 melanoma
OVCAR-3 ovarian = tested on: OVCAR-3 ovarian
HCT-116 colon = tested on: HCT-116 colon
SF-268 CNS = tested on: SF-268 CNS
OVCAR-8 ovarian = tested on: OVCAR-8 ovarian
MALME-3M melanoma = tested on: MALME-3M melanoma
SNB-75 CNS = tested on: SNB-75 CNS
HT29 colon = tested on: HT29 colon
OVCAR-5 ovarian = tested on: OVCAR-5 ovarian
A549 NSCLC = tested on: A549 NSCLC
IGROV1 ovarian = tested on: IGROV1 ovarian
TK-10 renal = tested on: TK-10 renal
SNB-19 CNS = tested on: SNB-19 CNS
M14 melanoma = tested on: M14 melanoma
KM12 colon = tested on: KM12 colon
SW-620 colon = tested on: SW-620 colon
NCI-H226 lung = tested on: NCI-H226 lung
LXFL 529 NSCLC = tested on: LXFL 529 NSCLC
DMS 273 small cell lung = tested on: DMS 273 small cell lung
OVCAR-4 ovarian = tested on: OVCAR-4 ovarian
SK-MEL-5 melanoma = tested on: SK-MEL-5 melanoma
HOP-92 NSCLC = tested on: HOP-92 NSCLC
SF-539 CNS = tested on: SF-539 CNS
SF-295 CNS = tested on: SF-295 CNS
EKVX NSCLC = tested on: EKVX NSCLC
RPMI-8226 leukemia = tested on: RPMI-8226 leukemia
HCC-2998 colon = tested on: HCC-2998 colon
SK-MEL-28 melanoma = tested on: SK-MEL-28 melanoma
K-562 leukemia = tested on: K-562 leukemia
RXF-631 renal = tested on: RXF-631 renal
HL-60(TB) leukemia = tested on: HL-60(TB) leukemia
CCRF-CEM leukemia = tested on: CCRF-CEM leukemia

CSC1N=CNc2c1sc(=S)n2-c1ccccc1 (stereo not drawn)
TGI (SR leukemia): > 100 µM | TGI (COLO 205 colon): > 100 µM | TGI (LOX IMVI melanoma): > 100 µM | TGI (SNB-78 CNS): > 100 µM | TGI (MOLT-4 leukemia): > 100 µM | TGI (SN12C renal): > 100 µM | TGI (UACC-257 melanoma): > 100 µM | TGI (786-0 renal): > 100 µM | TGI (M19-MEL melanoma): > 100 µM | TGI (DMS 114 small cell lung): > 100 µM | TGI (A498 renal): > 100 µM | TGI (CAKI-1 renal): > 100 µM | TGI (XF 498 CNS): > 100 µM | TGI (NCI-H460 lung): > 100 µM | TGI (UO-31 renal): > 100 µM | TGI (KM20L2 colon): > 100 µM | TGI (SK-MEL-2 melanoma): > 100 µM | TGI (NCI-H522 lung): > 100 µM | TGI (HOP-18 NSCLC): > 100 µM | TGI (HCT-15 colon): > 100 µM | TGI (HOP-62 NSCLC): 74.4 µM | TGI (NCI-H23 lung): > 100 µM | TGI (DLD-1 colon): > 100 µM | TGI (ACHN renal): > 100 µM | TGI (U251 CNS): > 100 µM | TGI (RXF 393 renal): > 100 µM | TGI (SK-OV-3 ovarian): > 100 µM | TGI (UACC-62 melanoma): > 100 µM | TGI (OVCAR-3 ovarian): > 100 µM | TGI (HCT-116 colon): > 100 µM | TGI (SF-268 CNS): > 100 µM | TGI (OVCAR-8 ovarian): > 100 µM | TGI (MALME-3M melanoma): > 100 µM | TGI (SNB-75 CNS): 84.7 µM | TGI (HT29 colon): > 100 µM | TGI (OVCAR-5 ovarian): > 100 µM | TGI (A549 NSCLC): > 100 µM | TGI (IGROV1 ovarian): > 100 µM | TGI (TK-10 renal): > 100 µM | TGI (SNB-19 CNS): > 100 µM | TGI (M14 melanoma): > 100 µM | TGI (KM12 colon): > 100 µM | TGI (SW-620 colon): > 100 µM | TGI (NCI-H226 lung): > 100 µM | TGI (LXFL 529 NSCLC): > 100 µM | TGI (DMS 273 small cell lung): > 100 µM | TGI (OVCAR-4 ovarian): > 100 µM | TGI (SK-MEL-5 melanoma): > 100 µM | TGI (HOP-92 NSCLC): > 100 µM | TGI (SF-539 CNS): > 100 µM | TGI (SF-295 CNS): > 100 µM | TGI (EKVX NSCLC): > 100 µM | TGI (RPMI-8226 leukemia): > 100 µM | TGI (HCC-2998 colon): > 100 µM | TGI (SK-MEL-28 melanoma): > 100 µM

NC(=O)c1cn(C2OC(CO)C(O)C2O)c(=O)[nH]c1=O (stereo not drawn)
TGI (SR leukemia): > 100 µM | TGI (COLO 205 colon): > 100 µM | TGI (LOX IMVI melanoma): > 100 µM | TGI (SNB-78 CNS): > 100 µM | TGI (MOLT-4 leukemia): > 100 µM | TGI (UACC-257 melanoma): > 100 µM | TGI (786-0 renal): > 100 µM | TGI (K-562 leukemia): > 100 µM | TGI (M19-MEL melanoma): > 100 µM | TGI (DMS 114 small cell lung): > 100 µM | TGI (A498 renal): > 100 µM | TGI (CAKI-1 renal): > 100 µM | TGI (NCI-H460 lung): > 100 µM | TGI (UO-31 renal): > 100 µM | TGI (SK-MEL-2 melanoma): > 100 µM | TGI (NCI-H522 lung): > 100 µM | TGI (HCT-15 colon): > 100 µM | TGI (HOP-62 NSCLC): > 100 µM | TGI (NCI-H23 lung): > 100 µM | TGI (DLD-1 colon): > 100 µM | TGI (ACHN renal): > 100 µM | TGI (U251 CNS): > 100 µM | TGI (RXF-631 renal): > 100 µM | TGI (SK-OV-3 ovarian): > 100 µM | TGI (HL-60(TB) leukemia): > 100 µM | TGI (UACC-62 melanoma): > 100 µM | TGI (OVCAR-3 ovarian): > 100 µM | TGI (HCT-116 colon): > 100 µM | TGI (SF-268 CNS): > 100 µM | TGI (OVCAR-8 ovarian): > 100 µM | TGI (SNB-75 CNS): > 100 µM | TGI (HT29 colon): > 100 µM | TGI (OVCAR-5 ovarian): > 100 µM | TGI (A549 NSCLC): > 100 µM | TGI (IGROV1 ovarian): > 100 µM | TGI (TK-10 renal): > 100 µM | TGI (M14 melanoma): > 100 µM | TGI (KM12 colon): > 100 µM | TGI (SW-620 colon): > 100 µM | TGI (NCI-H226 lung): > 100 µM | TGI (LXFL 529 NSCLC): > 100 µM | TGI (DMS 273 small cell lung): > 100 µM | TGI (OVCAR-4 ovarian): > 100 µM | TGI (SK-MEL-5 melanoma): > 100 µM | TGI (HOP-92 NSCLC): > 100 µM | TGI (CCRF-CEM leukemia): > 100 µM | TGI (SF-539 CNS): > 100 µM | TGI (SF-295 CNS): > 100 µM | TGI (EKVX NSCLC): > 100 µM | TGI (RPMI-8226 leukemia): > 100 µM | TGI (SK-MEL-28 melanoma): > 100 µM

NS(=O)(=O)c1cc2c(cc1Cl)NC(/C(=N/NC(=O)c1ccncc1)C1C(=O)NC(=O)NC1=O)=NS2(=O)=O
TGI (COLO 205 colon): > 100 µM | TGI (LOX IMVI melanoma): > 100 µM | TGI (SNB-78 CNS): > 100 µM | TGI (MOLT-4 leukemia): > 100 µM | TGI (UACC-257 melanoma): > 100 µM | TGI (786-0 renal): > 100 µM | TGI (K-562 leukemia): > 100 µM | TGI (M19-MEL melanoma): > 100 µM | TGI (DMS 114 small cell lung): > 100 µM | TGI (A498 renal): > 100 µM | TGI (CAKI-1 renal): > 100 µM | TGI (NCI-H460 lung): > 100 µM | TGI (UO-31 renal): > 100 µM | TGI (KM20L2 colon): > 100 µM | TGI (SK-MEL-2 melanoma): > 100 µM | TGI (HCT-15 colon): > 100 µM | TGI (HOP-62 NSCLC): > 100 µM | TGI (DLD-1 colon): > 100 µM | TGI (ACHN renal): > 100 µM | TGI (U251 CNS): > 100 µM | TGI (RXF-631 renal): > 100 µM | TGI (SK-OV-3 ovarian): > 100 µM | TGI (HL-60(TB) leukemia): > 100 µM | TGI (UACC-62 melanoma): > 100 µM | TGI (OVCAR-3 ovarian): > 100 µM | TGI (HCT-116 colon): > 100 µM | TGI (OVCAR-8 ovarian): > 100 µM | TGI (MALME-3M melanoma): > 100 µM | TGI (OVCAR-5 ovarian): > 100 µM | TGI (A549 NSCLC): > 100 µM | TGI (IGROV1 ovarian): > 100 µM | TGI (TK-10 renal): > 100 µM | TGI (SNB-19 CNS): > 100 µM | TGI (M14 melanoma): > 100 µM | TGI (KM12 colon): > 100 µM | TGI (SW-620 colon): > 100 µM | TGI (LXFL 529 NSCLC): > 100 µM | TGI (DMS 273 small cell lung): > 100 µM | TGI (OVCAR-4 ovarian): > 100 µM | TGI (SK-MEL-5 melanoma): > 100 µM | TGI (HOP-92 NSCLC): > 100 µM | TGI (CCRF-CEM leukemia): > 100 µM | TGI (SF-539 CNS): > 100 µM | TGI (SF-295 CNS): > 100 µM | TGI (EKVX NSCLC): > 100 µM | TGI (RPMI-8226 leukemia): > 100 µM | TGI (HCC-2998 colon): > 100 µM
